Assay results as given in PubChem BioAssay (NCI).
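Five compound concentrations were applied to cells in 96-well plates for 48 hours; endpoints were derived by simple linear interpolation of the resulting dose-response curve. The concentration for 50% growth inhibition is given as GI50. At the TGI there is no net growth.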

These compounds were tested on 786-0 renal (assay: NCI tumour cell line growth inhibition, 48 h).

Structure (SMILES)	TGI	GI50
CC1(C)CC(=O)C(C=NC(=S)c2ccccc2)=C(O)C1	> 100 µM	–
BrC1=C(Br)C2(SCCS2)[C@H]2C[C@@H]1c1ccccc12	> 100 µM	–
C/C=C(\C)C(=O)O[C@H]1C=CC(=O)O[C@H]1CCC(=O)[C@H](C)O	30.1 µM	14.9 µM
N#Cc1c(NC(=O)NCc2ccccc2)sc2c1CCCCC2	> 100 µM	0.761 µM
CCCCCCNc1n[nH]c(=O)c2c1nnn2Cc1ccccc1	> 100 µM	–

What follows are compounds tested on A498 renal (assay: NCI tumour cell line growth inhibition, 48 h).

Structure (SMILES)	TGI	GI50
BrC1=C(Br)C2(SCCS2)[C@H]2C[C@@H]1c1ccccc12	> 100 µM	–
C/C=C(\C)C(=O)O[C@H]1C=CC(=O)O[C@H]1CCC(=O)[C@H](C)O	56.1 µM	24.1 µM
N#Cc1c(NC(=O)NCc2ccccc2)sc2c1CCCCC2	1.1 µM	0.218 µM

Each compound was assayed on A549 NSCLC (assay: NCI tumour cell line growth inhibition, 48 h).

Structure (SMILES)	TGI	GI50
CC1(C)CC(=O)C(C=NC(=S)c2ccccc2)=C(O)C1	> 100 µM	–
BrC1=C(Br)C2(SCCS2)[C@H]2C[C@@H]1c1ccccc12	> 100 µM	–
C/C=C(\C)C(=O)O[C@H]1C=CC(=O)O[C@H]1CCC(=O)[C@H](C)O	46.7 µM	20.9 µM
N#Cc1c(NC(=O)NCc2ccccc2)sc2c1CCCCC2	> 100 µM	0.626 µM
CCCCCCNc1n[nH]c(=O)c2c1nnn2Cc1ccccc1	> 100 µM	–

Each compound was assayed on ACHN renal (assay: NCI tumour cell line growth inhibition, 48 h).

Structure (SMILES)	TGI	GI50
CC1(C)CC(=O)C(C=NC(=S)c2ccccc2)=C(O)C1	> 100 µM	–
BrC1=C(Br)C2(SCCS2)[C@H]2C[C@@H]1c1ccccc12	> 100 µM	–
C/C=C(\C)C(=O)O[C@H]1C=CC(=O)O[C@H]1CCC(=O)[C@H](C)O	23.4 µM	11 µM
N#Cc1c(NC(=O)NCc2ccccc2)sc2c1CCCCC2	> 100 µM	0.629 µM
CCCCCCNc1n[nH]c(=O)c2c1nnn2Cc1ccccc1	> 100 µM	–

The compounds below were run on BT-549 breast (assay: NCI tumour cell line growth inhibition, 48 h).

Structure (SMILES)	TGI	GI50
CC1(C)CC(=O)C(C=NC(=S)c2ccccc2)=C(O)C1	> 100 µM	–
BrC1=C(Br)C2(SCCS2)[C@H]2C[C@@H]1c1ccccc12	> 100 µM	–
C/C=C(\C)C(=O)O[C@H]1C=CC(=O)O[C@H]1CCC(=O)[C@H](C)O	36.8 µM	19 µM
N#Cc1c(NC(=O)NCc2ccccc2)sc2c1CCCCC2	> 100 µM	0.923 µM
CCCCCCNc1n[nH]c(=O)c2c1nnn2Cc1ccccc1	> 100 µM	–

The compounds below were run on CAKI-1 renal (assay: NCI tumour cell line growth inhibition, 48 h).

Structure (SMILES)	TGI	GI50
CC1(C)CC(=O)C(C=NC(=S)c2ccccc2)=C(O)C1	> 100 µM	–
BrC1=C(Br)C2(SCCS2)[C@H]2C[C@@H]1c1ccccc12	> 100 µM	–
C/C=C(\C)C(=O)O[C@H]1C=CC(=O)O[C@H]1CCC(=O)[C@H](C)O	17.3 µM	7.16 µM
N#Cc1c(NC(=O)NCc2ccccc2)sc2c1CCCCC2	> 100 µM	0.659 µM
CCCCCCNc1n[nH]c(=O)c2c1nnn2Cc1ccccc1	> 100 µM	–

These compounds were tested on CCRF-CEM leukemia (assay: NCI tumour cell line growth inhibition, 48 h).

Structure (SMILES)	TGI	GI50
CC1(C)CC(=O)C(C=NC(=S)c2ccccc2)=C(O)C1	> 100 µM	–
BrC1=C(Br)C2(SCCS2)[C@H]2C[C@@H]1c1ccccc12	> 100 µM	–
C/C=C(\C)C(=O)O[C@H]1C=CC(=O)O[C@H]1CCC(=O)[C@H](C)O	9.1 µM	0.014 µM
N#Cc1c(NC(=O)NCc2ccccc2)sc2c1CCCCC2	> 100 µM	0.357 µM
CCCCCCNc1n[nH]c(=O)c2c1nnn2Cc1ccccc1	> 100 µM	–

These compounds were tested on COLO 205 colon (assay: NCI tumour cell line growth inhibition, 48 h).

Structure (SMILES)	TGI	GI50
CC1(C)CC(=O)C(C=NC(=S)c2ccccc2)=C(O)C1	> 100 µM	–
BrC1=C(Br)C2(SCCS2)[C@H]2C[C@@H]1c1ccccc12	> 100 µM	–
C/C=C(\C)C(=O)O[C@H]1C=CC(=O)O[C@H]1CCC(=O)[C@H](C)O	22.6 µM	6.07 µM
N#Cc1c(NC(=O)NCc2ccccc2)sc2c1CCCCC2	3.74 µM	0.521 µM
CCCCCCNc1n[nH]c(=O)c2c1nnn2Cc1ccccc1	> 100 µM	–

Each compound was assayed on DU-145 prostate (assay: NCI tumour cell line growth inhibition, 48 h).

Structure (SMILES)	TGI	GI50
CC1(C)CC(=O)C(C=NC(=S)c2ccccc2)=C(O)C1	> 100 µM	–
BrC1=C(Br)C2(SCCS2)[C@H]2C[C@@H]1c1ccccc12	> 100 µM	–
C/C=C(\C)C(=O)O[C@H]1C=CC(=O)O[C@H]1CCC(=O)[C@H](C)O	33.1 µM	16.9 µM
N#Cc1c(NC(=O)NCc2ccccc2)sc2c1CCCCC2	4.71 µM	0.564 µM
CCCCCCNc1n[nH]c(=O)c2c1nnn2Cc1ccccc1	> 100 µM	–

What follows are compounds tested on EKVX NSCLC (assay: NCI tumour cell line growth inhibition, 48 h).

Structure (SMILES)	TGI	GI50
CC1(C)CC(=O)C(C=NC(=S)c2ccccc2)=C(O)C1	> 100 µM	–
BrC1=C(Br)C2(SCCS2)[C@H]2C[C@@H]1c1ccccc12	> 100 µM	–
C/C=C(\C)C(=O)O[C@H]1C=CC(=O)O[C@H]1CCC(=O)[C@H](C)O	33.6 µM	17.8 µM
N#Cc1c(NC(=O)NCc2ccccc2)sc2c1CCCCC2	> 100 µM	0.461 µM
CCCCCCNc1n[nH]c(=O)c2c1nnn2Cc1ccccc1	> 100 µM	–

What follows are compounds tested on HCC-2998 colon (assay: NCI tumour cell line growth inhibition, 48 h).

Structure (SMILES)	TGI	GI50
CC1(C)CC(=O)C(C=NC(=S)c2ccccc2)=C(O)C1	> 100 µM	–
BrC1=C(Br)C2(SCCS2)[C@H]2C[C@@H]1c1ccccc12	> 89.6 µM	–
C/C=C(\C)C(=O)O[C@H]1C=CC(=O)O[C@H]1CCC(=O)[C@H](C)O	32.4 µM	17.1 µM
N#Cc1c(NC(=O)NCc2ccccc2)sc2c1CCCCC2	> 28.5 µM	1.77 µM
CCCCCCNc1n[nH]c(=O)c2c1nnn2Cc1ccccc1	> 100 µM	–

Each compound was assayed on HCT-116 colon (assay: NCI tumour cell line growth inhibition, 48 h).

Structure (SMILES)	TGI	GI50
CC1(C)CC(=O)C(C=NC(=S)c2ccccc2)=C(O)C1	> 100 µM	–
BrC1=C(Br)C2(SCCS2)[C@H]2C[C@@H]1c1ccccc12	> 100 µM	–
C/C=C(\C)C(=O)O[C@H]1C=CC(=O)O[C@H]1CCC(=O)[C@H](C)O	11.2 µM	2.87 µM
N#Cc1c(NC(=O)NCc2ccccc2)sc2c1CCCCC2	> 100 µM	0.528 µM
CCCCCCNc1n[nH]c(=O)c2c1nnn2Cc1ccccc1	> 100 µM	–

These compounds were tested on HCT-15 colon (assay: NCI tumour cell line growth inhibition, 48 h).

Structure (SMILES)	TGI	GI50
CC1(C)CC(=O)C(C=NC(=S)c2ccccc2)=C(O)C1	> 100 µM	–
BrC1=C(Br)C2(SCCS2)[C@H]2C[C@@H]1c1ccccc12	> 100 µM	–
C/C=C(\C)C(=O)O[C@H]1C=CC(=O)O[C@H]1CCC(=O)[C@H](C)O	27.1 µM	11.6 µM
N#Cc1c(NC(=O)NCc2ccccc2)sc2c1CCCCC2	> 100 µM	0.417 µM
CCCCCCNc1n[nH]c(=O)c2c1nnn2Cc1ccccc1	> 100 µM	–

The compounds below were run on HL-60(TB) leukemia (assay: NCI tumour cell line growth inhibition, 48 h).

Structure (SMILES)	TGI	GI50
CC1(C)CC(=O)C(C=NC(=S)c2ccccc2)=C(O)C1	> 100 µM	–
BrC1=C(Br)C2(SCCS2)[C@H]2C[C@@H]1c1ccccc12	> 100 µM	–
C/C=C(\C)C(=O)O[C@H]1C=CC(=O)O[C@H]1CCC(=O)[C@H](C)O	24.8 µM	7.34 µM
N#Cc1c(NC(=O)NCc2ccccc2)sc2c1CCCCC2	0.843 µM	0.286 µM
CCCCCCNc1n[nH]c(=O)c2c1nnn2Cc1ccccc1	> 100 µM	–
